Laboratory results reported in US20100130477A1, “Spirocyclobutyl Piperidine Derivatives” (ASTRAZENECA AB, priority 2008, published 2010).

Each compound was assayed against T1, human Histamine H3 receptor (hH3R) (Homo sapiens, UniProt Q9Y5N1) (assay: GTPγS Binding Assay (antagonist activity, [35S]GTPγS, (R)-α-methyl histamine 30 nM)). Details: membranes from CHO cells expressing hH3R, 90 minutes at room temperature.
T1 construct: expressed in transfected cells; host or cells: CHO cells (Chinese Hamster Ovary); membranes
Format: biochemical
Experimental: Guanosine 5′-O-(3-[^35S]thio)triphosphate [GTPγS] Binding Assay
A GTPγS binding assay can be used to investigate antagonist properties of compounds in CHO cells (Chinese Hamster Ovary) transfected with human Histamine H3 receptor (hH3R). Membranes from CHO cells expressing hH3R (10 μg/well) are diluted in GTPγS assay buffer (20 mM Hepes, 10 mM MgCl2, 100 mM NaCl, pH 7.4) and preincubated with saponine (3 μg/ml), GDP (10 μM) and PVT-WGA SPA beads (125 μg/well) (Amersham) for 30 minutes. To determine antagonist activity, (R)-α-methyl histamine (30 nM) is added in 96 well SPA plate with [^35S]GTPγS (0.2 nM) and various concentration of H3R antagonists. The GTPγS binding assay is started with addition of the mixture membrane/saponine/GDP and incubated for 90 minutes at room temperature. The amount of bound [^35S]GTPγS is determined by using the MicroBeta Trilux counter (PerkinElmer). The percentage of [^35S]GTPγS bound in each sample is calculated as a percentage of that bound control sample incubated in absence of H3 antagonist. Duplicate determinations are obtained for each concentration, and the data are analyzed using ExcelFit4 to obtain the IC50.

T1 sequence (Q9Y5N1 whole entry): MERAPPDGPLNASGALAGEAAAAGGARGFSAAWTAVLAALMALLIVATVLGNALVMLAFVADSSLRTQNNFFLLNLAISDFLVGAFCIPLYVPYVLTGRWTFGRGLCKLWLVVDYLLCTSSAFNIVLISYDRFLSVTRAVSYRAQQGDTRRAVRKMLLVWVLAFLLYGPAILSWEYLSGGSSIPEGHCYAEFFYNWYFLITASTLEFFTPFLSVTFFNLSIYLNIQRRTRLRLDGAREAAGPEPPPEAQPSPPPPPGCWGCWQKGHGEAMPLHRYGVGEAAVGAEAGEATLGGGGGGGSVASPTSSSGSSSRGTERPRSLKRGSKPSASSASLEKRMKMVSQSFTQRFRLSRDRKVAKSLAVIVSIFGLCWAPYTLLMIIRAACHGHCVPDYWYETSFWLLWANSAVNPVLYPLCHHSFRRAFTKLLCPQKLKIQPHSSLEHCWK

SMILES | IC50
CC(C)N1CCCN(C(=O)C2CC3(CCN(S(C)(=O)=O)CC3)C2)CC1 [Example 52, (4-isopropyl-1,4-diazepan-1-yl)(7-(methylsulfonyl)-7-azaspiro[3.5]nonan-2-yl)methanone] | 56.4 nM
O=C(c1ncc(F)cc1F)N1CCC2(CC1)CC(C(=O)N1CCN(C3CCC3)CC1)C2 [Example 16, (4-cyclobutylpiperazin-1-yl)(7-(3,5-difluoropicolinoyl)-7-azaspiro[3.5]nonan-2-yl)methanone] | 80.4 nM
CC(C)N1CCN(C(=O)C2CC3(CCN(C(=O)N(C)C)CC3)C2)CC1 [Example 37, 2-(4-isopropylpiperazine-1-carbonyl)-N,N-dimethyl-7-azaspiro[3.5]nonane-7-carboxamide] | 114 nM
CC(C)N1CCCN(C(=O)C2CC3(CCN(C(=O)c4cccnc4)CC3)C2)CC1 [Example 55, (4-isopropyl-1,4-diazepan-1-yl)(7-nicotinoyl-7-azaspiro[3.5]nonan-2-yl)methanone] | 115 nM
Cc1cccnc1C(=O)N1CCC2(CC1)CC(C(=O)N1CCN(C3CCC3)CC1)C2 [Example 19, (4-cyclobutylpiperazin-1-yl)(7-(3-methylpicolinoyl)-7-azaspiro[3.5]nonan-2-yl)methanone] | 24.5 nM
Cc1cccc(C(=O)N2CCC3(CC2)CC(C(=O)N2CCN(C4CCC4)CC2)C3)n1 [Example 18, (4-cyclobutylpiperazin-1-yl)(7-(6-methylpicolinoyl)-7-azaspiro[3.5]nonan-2-yl)methanone] | 54 nM
O=C(c1cc(Cl)ccn1)N1CCC2(CC1)CC(C(=O)N1CCN(C3CCC3)CC1)C2 [Example 17, (7-(4-chloropicolinoyl)-7-azaspiro[3.5]nonan-2-yl)(4-cyclobutylpiperazin-1-yl)methanone] | 35 nM
C[C@H]1CN(C2CCC2)CCN1C(=O)C1CC2(CCN(S(C)(=O)=O)CC2)C1 [Example 63, ((S)-4-cyclobutyl-2-methylpiperazin-1-yl)(7-(methylsulfonyl)-7-azaspiro[3.5]nonan-2-yl)methanone] | 21.2 nM
N#Cc1cnccc1C(=O)N1CCC2(CC1)CC(C(=O)N1CCN(C3CCC3)CC1)C2 [Example 64, 4-(2-(4-cyclobutylpiperazine-1-carbonyl)-7-azaspiro[3.5]nonane-7-carbonyl)nicotinonitrile] | 16.8 nM
CC(C)N1CCCN(C(=O)C2CC3(CCN(C(=O)c4ccncc4)CC3)C2)CC1 [Example 54, (7-isonicotinoyl-7-azaspiro[3.5]nonan-2-yl)(4-isopropyl-1,4-diazepan-1-yl)methanone] | 161 nM
O=C(Cc1ccncc1)N1CCC2(CC1)CC(C(=O)N1CCN(C3CCC3)CC1)C2 [Example 28, 1-(2-(4-cyclobutylpiperazine-1-carbonyl)-7-azaspiro[3.5]nonan-7-yl)-2-(pyridin-4-yl)ethanone] | 13.8 nM
Cc1cc(C(=O)N2CCC3(CC2)CC(C(=O)N2CCN(C4CCC4)CC2)C3)ccn1 [Example 24, (4-cyclobutylpiperazin-1-yl)(7-(2-methylisonicotinoyl)-7-azaspiro[3.5]nonan-2-yl)methanone] | 21.8 nM
O=C(C1CC2(CCN(c3ccncc3)CC2)C1)N1CCN(C2CCC2)CC1 [Example 66, (4-cyclobutylpiperazin-1-yl)(7-(pyridin-4-yl)-7-azaspiro[3.5]nonan-2-yl)methanone] | 10.1 nM
Cc1cncc(C(=O)N2CCC3(CC2)CC(C(=O)N2CCN(C4CCC4)CC2)C3)c1 [Example 25, (4-cyclobutylpiperazin-1-yl)(7-(5-methylnicotinoyl)-7-azaspiro[3.5]nonan-2-yl)methanone] | 12.5 nM
O=C(C1CC2(CCN(S(=O)(=O)c3cccc(F)c3)CC2)C1)N1CCCN(C2CCC2)CC1 [Example 39, (4-cyclobutyl-1,4-diazepan-1-yl)(7-(3-fluorophenylsulfonyl)-7-azaspiro[3.5]nonan-2-yl)methanone] | 9.97 nM
CC(C)N1CCN(C(=O)C2CC3(CCN(C(=O)c4cccnc4)CC3)C2)CC1 [Example 36, (4-isopropylpiperazin-1-yl)(7-nicotinoyl-7-azaspiro[3.5]nonan-2-yl)methanone] | 67.4 nM

SMILES | IC50
N#Cc1ccccc1C(=O)N1CCC2(CC1)CC(C(=O)N1CCCN(C3CCC3)CC1)C2 [Example 51, 2-(2-(4-cyclobutyl-1,4-diazepane-1-carbonyl)-7-azaspiro[3.5]nonane-7-carbonyl)benzonitrile] | 5.02 nM
O=C(C1CC2(CCN(S(=O)(=O)c3ccccc3)CC2)C1)N1CCCN(C2CCC2)CC1 [Example 41, (4-cyclobutyl-1,4-diazepan-1-yl)(7-(phenylsulfonyl)-7-azaspiro[3.5]nonan-2-yl)methanone] | 8.71 nM
Cc1cc(C(=O)N2CCC3(CC2)CC(C(=O)N2CCCN(C4CCC4)CC2)C3)ccn1 [Example 43, (4-cyclobutyl-1,4-diazepan-1-yl)(7-(2-methylisonicotinoyl)-7-azaspiro[3.5]nonan-2-yl)methanone] | 8.87 nM
O=C(Cc1cccnc1)N1CCC2(CC1)CC(C(=O)N1CCN(C3CCC3)CC1)C2 [Example 27, 1-(2-(4-cyclobutylpiperazine-1-carbonyl)-7-azaspiro[3.5]nonan-7-yl)-2-(pyridin-3-yl)ethanone] | 12.6 nM
C[C@@H]1CN(C2CCC2)CCN1C(=O)C1CC2(CCN(S(C)(=O)=O)CC2)C1 [Example 62, ((R)-4-cyclobutyl-2-methylpiperazin-1-yl)(7-(methylsulfonyl)-7-azaspiro[3.5]nonan-2-yl)methanone] | 4.25 nM
O=C(c1cnccc1Cl)N1CCC2(CC1)CC(C(=O)N1CCN(C3CCC3)CC1)C2 [Example 10, (7-(4-chloronicotinoyl)-7-azaspiro[3.5]nonan-2-yl)(4-cyclobutylpiperazin-1-yl)methanone] | 29.6 nM
Cc1cc(C(=O)N2CCC3(CC2)CC(C(=O)N2CCCN(C(C)C)CC2)C3)ccn1 [Example 53, (4-isopropyl-1,4-diazepan-1-yl)(7-(2-methylisonicotinoyl)-7-azaspiro[3.5]nonan-2-yl)methanone] | 160 nM
O=C(C1CC2(CCN(S(=O)(=O)c3ccc(F)cc3)CC2)C1)N1CCCN(C2CCC2)CC1 [Example 38, (4-cyclobutyl-1,4-diazepan-1-yl)(7-(4-fluorophenylsulfonyl)-7-azaspiro[3.5]nonan-2-yl)methanone] | 8.9 nM
CS(=O)(=O)N1CCC2(CC1)CC(C(=O)N1CCN(C3CCC3)CC1)C2 [Example 5, (4-cyclobutylpiperazin-1-yl)(7-(methylsulfonyl)-7-azaspiro[3.5]nonan-2-yl)methanone] | 7.29 nM
COc1cc(C(=O)N2CCC3(CC2)CC(C(=O)N2CCN(C4CCC4)CC2)C3)ccn1 [Example 26, (4-cyclobutylpiperazin-1-yl)(7-(2-methoxyisonicotinoyl)-7-azaspiro[3.5]nonan-2-yl)methanone] | 23.8 nM
O=C(c1ccccc1)N1CCC2(CC1)CC(C(=O)N1CCN(C3CCC3)CC1)C2 [Example 30, (7-benzoyl-7-azaspiro[3.5]nonan-2-yl)(4-cyclobutylpiperazin-1-yl)methanone] | 48.4 nM
O=C(c1ccccc1)N1CCC2(CC1)CC(C(=O)N1CCCN(C3CCC3)CC1)C2 [Example 48, (7-benzoyl-7-azaspiro[3.5]nonan-2-yl)(4-cyclobutyl-1,4-diazepan-1-yl)methanone] | 12.7 nM
CC(C)N1CCN(C(=O)C2CC3(CCN(S(C)(=O)=O)CC3)C2)CC1 [Example 33, (4-isopropylpiperazin-1-yl)(7-(methylsulfonyl)-7-azaspiro[3.5]nonan-2-yl)methanone] | 33.9 nM
O=C(c1ccncc1)N1CCC2(CC1)CC(C(=O)N1CCCN(C3CCC3)CC1)C2 [Example 45, (4-cyclobutyl-1,4-diazepan-1-yl)(7-isonicotinoyl-7-azaspiro[3.5]nonan-2-yl)methanone] | 7.61 nM
O=C(c1ccccn1)N1CCC2(CC1)CC(C(=O)N1CCCN(C3CCC3)CC1)C2 [Example 42, (4-cyclobutyl-1,4-diazepan-1-yl)(7-picolinoyl-7-azaspiro[3.5]nonan-2-yl)methanone] | 15 nM
